PubChem BioAssay (NCI)
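How tested: cells in 96-well plates exposed to compound for 48 hours at five concentrations. Here, GI50 denotes the concentration required for 50% inhibition of growth. TGI: concentration producing complete growth inhibition.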

Columns and labels:
Assay in all cases: growth of human tumour cells (NCI), 48 h
SR leukemia = tested on: SR leukemia
RPMI-8226 leukemia = tested on: RPMI-8226 leukemia
MCF7 breast = tested on: MCF7 breast
NCI-H460 lung = tested on: NCI-H460 lung
A549 NSCLC = tested on: A549 NSCLC
EKVX NSCLC = tested on: EKVX NSCLC
HOP-92 NSCLC = tested on: HOP-92 NSCLC
SW-620 colon = tested on: SW-620 colon
PC-3 prostate = tested on: PC-3 prostate
CCRF-CEM leukemia = tested on: CCRF-CEM leukemia
MDA-MB-435 = tested on: MDA-MB-435
SF-539 CNS = tested on: SF-539 CNS
MALME-3M melanoma = tested on: MALME-3M melanoma
MOLT-4 leukemia = tested on: MOLT-4 leukemia
OVCAR-4 ovarian = tested on: OVCAR-4 ovarian
SK-MEL-28 melanoma = tested on: SK-MEL-28 melanoma
SK-OV-3 ovarian = tested on: SK-OV-3 ovarian
CAKI-1 renal = tested on: CAKI-1 renal
T-47D breast = tested on: T-47D breast
SNB-75 CNS = tested on: SNB-75 CNS
HS 578T breast = tested on: HS 578T breast
K-562 leukemia = tested on: K-562 leukemia
786-0 renal = tested on: 786-0 renal
SNB-19 CNS = tested on: SNB-19 CNS
ACHN renal = tested on: ACHN renal
HL-60(TB) leukemia = tested on: HL-60(TB) leukemia
MDA-N = tested on: MDA-N
IGROV1 ovarian = tested on: IGROV1 ovarian
A498 renal = tested on: A498 renal
SK-MEL-2 melanoma = tested on: SK-MEL-2 melanoma
TK-10 renal = tested on: TK-10 renal
NCI-H23 lung = tested on: NCI-H23 lung
HCT-15 colon = tested on: HCT-15 colon
OVCAR-3 ovarian = tested on: OVCAR-3 ovarian
SF-295 CNS = tested on: SF-295 CNS
NCI-H226 lung = tested on: NCI-H226 lung
UACC-62 melanoma = tested on: UACC-62 melanoma
HT29 colon = tested on: HT29 colon
SF-268 CNS = tested on: SF-268 CNS
LOX IMVI melanoma = tested on: LOX IMVI melanoma
NCI/ADR-RES ovarian = tested on: NCI/ADR-RES ovarian
KM12 colon = tested on: KM12 colon
MDA-MB-231 breast = tested on: MDA-MB-231 breast
UO-31 renal = tested on: UO-31 renal
HCC-2998 colon = tested on: HCC-2998 colon
DU-145 prostate = tested on: DU-145 prostate
M14 melanoma = tested on: M14 melanoma
RXF 393 renal = tested on: RXF 393 renal
OVCAR-5 ovarian = tested on: OVCAR-5 ovarian
UACC-257 melanoma = tested on: UACC-257 melanoma
OVCAR-8 ovarian = tested on: OVCAR-8 ovarian
U251 CNS = tested on: U251 CNS
SK-MEL-5 melanoma = tested on: SK-MEL-5 melanoma
HOP-62 NSCLC = tested on: HOP-62 NSCLC
NCI-H522 lung = tested on: NCI-H522 lung
COLO 205 colon = tested on: COLO 205 colon
BT-549 breast = tested on: BT-549 breast
SN12C renal = tested on: SN12C renal
HCT-116 colon = tested on: HCT-116 colon

`C=C(C)[C@@]1(O[Si](C)(C)C)CCCC[C@@H]1CC(Sc1ccccc1)Sc1ccccc1` was tested, and the TGI (SR leukemia) was 31.5 µM, the TGI (RPMI-8226 leukemia) was 49.3 µM and the TGI (MCF7 breast) was 27.6 µM. It also gave a TGI (NCI-H460 lung) of 29.6 µM, a TGI (A549 NSCLC) of 23.1 µM and a TGI (EKVX NSCLC) of 32.1 µM. For the same molecule, the TGI (HOP-92 NSCLC) was 26 µM, the TGI (SW-620 colon) was 30.2 µM and the TGI (PC-3 prostate) was 27.4 µM. It also gave a TGI (CCRF-CEM leukemia) of 36.2 µM, a TGI (MDA-MB-435) of 31.6 µM and a TGI (SF-539 CNS) of 26.5 µM. For the same molecule, the TGI (MALME-3M melanoma) was 24.4 µM, the TGI (MOLT-4 leukemia) was 25.7 µM and the TGI (OVCAR-4 ovarian) was 26.2 µM. It also gave a TGI (SK-MEL-28 melanoma) of 37 µM, a TGI (SK-OV-3 ovarian) of 39.7 µM and a TGI (CAKI-1 renal) of 25.8 µM. The TGI (T-47D breast) was 18.8 µM, the TGI (SNB-75 CNS) was 25.7 µM and the TGI (HS 578T breast) was 29.7 µM. For the same molecule, the TGI (K-562 leukemia) was 41.2 µM, the TGI (786-0 renal) was 28.6 µM and the TGI (SNB-19 CNS) was 30.6 µM. For the same molecule, the TGI (ACHN renal) was 28.8 µM, the TGI (HL-60(TB) leukemia) was 40.8 µM and the TGI (MDA-N) was 32.7 µM. It also gave a TGI (IGROV1 ovarian) of 32.7 µM, a TGI (A498 renal) of 34.5 µM and a TGI (SK-MEL-2 melanoma) of 31 µM. It also gave a TGI (TK-10 renal) of 29 µM, a TGI (NCI-H23 lung) of 30.9 µM and a TGI (HCT-15 colon) of 28.6 µM. For the same molecule, the TGI (OVCAR-3 ovarian) was 27.7 µM, the TGI (SF-295 CNS) was 25.5 µM and the TGI (NCI-H226 lung) was 32.2 µM. For the same molecule, the TGI (UACC-62 melanoma) was 26.9 µM, the TGI (HT29 colon) was 34.8 µM and the TGI (SF-268 CNS) was 28.2 µM. For the same molecule, the TGI (LOX IMVI melanoma) was 37.2 µM, the TGI (NCI/ADR-RES ovarian) was 32 µM and the TGI (KM12 colon) was 23.8 µM. The TGI (MDA-MB-231 breast) was 32.1 µM, the TGI (UO-31 renal) was 27.3 µM and the TGI (HCC-2998 colon) was 29.8 µM. It also gave a TGI (DU-145 prostate) of 29.7 µM, a TGI (M14 melanoma) of 31.3 µM and a TGI (RXF 393 renal) of 24.6 µM. The TGI (OVCAR-5 ovarian) was 30.3 µM, the TGI (UACC-257 melanoma) was 29.7 µM and the TGI (OVCAR-8 ovarian) was 31.7 µM. For the same molecule, the TGI (U251 CNS) was 30.7 µM, the TGI (SK-MEL-5 melanoma) was 34.8 µM and the TGI (HOP-62 NSCLC) was 27.5 µM. It also gave a TGI (NCI-H522 lung) of 20.4 µM and a TGI (COLO 205 colon) of 38.9 µM.
Work on `C/C(=N\NC(=S)N1CC2CCC(CC2)C1)c1ccccn1` yielded a GI50 (SR leukemia) of 42.4 nM, a TGI (SR leukemia) of 2.22 µM and a GI50 (RPMI-8226 leukemia) of 36.8 nM. For the same molecule, the TGI (RPMI-8226 leukemia) was 0.78 µM, the GI50 (MCF7 breast) was < 14.5 nM and the TGI (MCF7 breast) was 1.44 µM. For the same molecule, the GI50 (NCI-H460 lung) was 44 nM, the TGI (NCI-H460 lung) was 1.37 µM and the GI50 (A549 NSCLC) was 64 nM. For the same molecule, the TGI (A549 NSCLC) was 1.66 µM, the GI50 (EKVX NSCLC) was 32.2 nM and the TGI (EKVX NSCLC) was 1.16 µM. For the same molecule, the GI50 (HOP-92 NSCLC) was 25.5 nM, the TGI (HOP-92 NSCLC) was 0.793 µM and the GI50 (SW-620 colon) was 33 nM. The TGI (SW-620 colon) was 1.57 µM, the GI50 (PC-3 prostate) was 26 nM and the TGI (PC-3 prostate) was 1.75 µM. It also gave a GI50 (CCRF-CEM leukemia) of 33.5 nM, a GI50 (MDA-MB-435) of 141 nM and a TGI (MDA-MB-435) of 1.64 µM. The GI50 (BT-549 breast) was 135 nM, the TGI (BT-549 breast) was 1840 nM and the GI50 (SN12C renal) was 228 nM. The TGI (SN12C renal) was 2030 nM, the GI50 (SF-539 CNS) was 257 nM and the TGI (SF-539 CNS) was 2.34 µM. It also gave a GI50 (MALME-3M melanoma) of 121 nM, a TGI (MALME-3M melanoma) of 1.49 µM and a GI50 (MOLT-4 leukemia) of 59.8 nM. It also gave a TGI (MOLT-4 leukemia) of 3.74 µM, a GI50 (OVCAR-4 ovarian) of 23.8 nM and a TGI (OVCAR-4 ovarian) of 1.1 µM. It also gave a GI50 (SK-MEL-28 melanoma) of 767 nM, a TGI (SK-MEL-28 melanoma) of 2.93 µM and a GI50 (SK-OV-3 ovarian) of 46.5 nM. The TGI (SK-OV-3 ovarian) was 1.01 µM, the GI50 (CAKI-1 renal) was 270 nM and the TGI (CAKI-1 renal) was 3.89 µM. The GI50 (T-47D breast) was 11.3 nM, the TGI (T-47D breast) was 1.39 µM and the GI50 (SNB-75 CNS) was 643 nM. The TGI (SNB-75 CNS) was 2.07 µM, the GI50 (HS 578T breast) was 226 nM and the TGI (HS 578T breast) was 3.87 µM. The GI50 (K-562 leukemia) was < 10.8 nM, the TGI (K-562 leukemia) was 2.21 µM and the GI50 (786-0 renal) was 152 nM. For the same molecule, the TGI (786-0 renal) was 1.46 µM, the GI50 (SNB-19 CNS) was 345 nM and the TGI (SNB-19 CNS) was 3.78 µM. The GI50 (ACHN renal) was 34.7 nM, the TGI (ACHN renal) was 1.52 µM and the GI50 (HL-60(TB) leukemia) was 48.2 nM. The TGI (HL-60(TB) leukemia) was 1.21 µM, the GI50 (IGROV1 ovarian) was < 10 nM and the TGI (IGROV1 ovarian) was 2.29 µM. It also gave a GI50 (A498 renal) of 416 nM, a TGI (A498 renal) of 1.91 µM and a GI50 (SK-MEL-2 melanoma) of 419 nM. It also gave a TGI (SK-MEL-2 melanoma) of 1.99 µM, a GI50 (TK-10 renal) of 405 nM and a TGI (TK-10 renal) of 1.78 µM. For the same molecule, the GI50 (NCI-H23 lung) was 17.9 nM, the TGI (NCI-H23 lung) was 3.34 µM and the GI50 (HCT-15 colon) was 31.3 nM. For the same molecule, the TGI (HCT-15 colon) was 2.51 µM, the GI50 (OVCAR-3 ovarian) was < 14.1 nM and the TGI (OVCAR-3 ovarian) was 0.29 µM. The GI50 (HCT-116 colon) was < 10 nM, the TGI (HCT-116 colon) was 1150 nM and the GI50 (SF-295 CNS) was 178 nM. It also gave a TGI (SF-295 CNS) of 2.08 µM, a GI50 (NCI-H226 lung) of 394 nM and a TGI (NCI-H226 lung) of 1.91 µM. For the same molecule, the GI50 (UACC-62 melanoma) was 309 nM, the TGI (UACC-62 melanoma) was 3.3 µM and the GI50 (HT29 colon) was < 14 nM. For the same molecule, the TGI (HT29 colon) was 1.67 µM, the GI50 (SF-268 CNS) was 185 nM and the TGI (SF-268 CNS) was 2.4 µM. The GI50 (LOX IMVI melanoma) was 42.8 nM, the TGI (LOX IMVI melanoma) was 1.81 µM and the GI50 (NCI/ADR-RES ovarian) was < 17.7 nM. The TGI (NCI/ADR-RES ovarian) was 2.43 µM, the GI50 (KM12 colon) was 83.7 nM and the TGI (KM12 colon) was 1.59 µM. It also gave a GI50 (MDA-MB-231 breast) of 156 nM, a TGI (MDA-MB-231 breast) of 2.45 µM and a GI50 (UO-31 renal) of 21 nM. For the same molecule, the TGI (UO-31 renal) was 1.63 µM, the GI50 (HCC-2998 colon) was 171 nM and the TGI (HCC-2998 colon) was 1.8 µM. It also gave a GI50 (DU-145 prostate) of 408 nM, a TGI (DU-145 prostate) of 2.83 µM and a GI50 (M14 melanoma) of 43.1 nM. It also gave a TGI (M14 melanoma) of 1.21 µM, a GI50 (RXF 393 renal) of 226 nM and a TGI (RXF 393 renal) of 1.3 µM. For the same molecule, the GI50 (OVCAR-5 ovarian) was 94.9 nM, the TGI (OVCAR-5 ovarian) was 2.73 µM and the GI50 (UACC-257 melanoma) was 21.4 nM. The TGI (UACC-257 melanoma) was 0.357 µM, the GI50 (OVCAR-8 ovarian) was < 20.9 nM and the TGI (OVCAR-8 ovarian) was 1.53 µM. For the same molecule, the GI50 (U251 CNS) was 47.3 nM, the TGI (U251 CNS) was 1.19 µM and the GI50 (SK-MEL-5 melanoma) was 133 nM. For the same molecule, the TGI (SK-MEL-5 melanoma) was 0.852 µM, the GI50 (HOP-62 NSCLC) was 142 nM and the TGI (HOP-62 NSCLC) was 1.69 µM. For the same molecule, the GI50 (NCI-H522 lung) was 195 nM, the TGI (NCI-H522 lung) was 1.27 µM and the GI50 (COLO 205 colon) was 14.6 nM. For the same molecule, the TGI (COLO 205 colon) was 0.0719 µM.
